Measured values taken from PMC3532720, “A Sugar Gustatory Receptor Identified from the Foregut of Cotton Bollworm Helicoverpa armigera” (Journal of Chemical Ecology, 2012).

target: T1, HaGR9 (Helicoverpa armigera, UniProt L0C9V2); assay: calcium imaging, transfected Sf9 cells; type: cell-based; details: agonist; dose range 5 to 50 mM; HBSS buffer; control-cell response subtracted; Sf9 cells have endogenous sugar responses
T1 construct: gene GR9; native full-length receptor, 465 residues, untagged, cDNA from larval foregut, transiently expressed in Spodoptera frugiperda Sf9 cells, no co-receptor co-transfected
T1 sequence (L0C9V2 1-465): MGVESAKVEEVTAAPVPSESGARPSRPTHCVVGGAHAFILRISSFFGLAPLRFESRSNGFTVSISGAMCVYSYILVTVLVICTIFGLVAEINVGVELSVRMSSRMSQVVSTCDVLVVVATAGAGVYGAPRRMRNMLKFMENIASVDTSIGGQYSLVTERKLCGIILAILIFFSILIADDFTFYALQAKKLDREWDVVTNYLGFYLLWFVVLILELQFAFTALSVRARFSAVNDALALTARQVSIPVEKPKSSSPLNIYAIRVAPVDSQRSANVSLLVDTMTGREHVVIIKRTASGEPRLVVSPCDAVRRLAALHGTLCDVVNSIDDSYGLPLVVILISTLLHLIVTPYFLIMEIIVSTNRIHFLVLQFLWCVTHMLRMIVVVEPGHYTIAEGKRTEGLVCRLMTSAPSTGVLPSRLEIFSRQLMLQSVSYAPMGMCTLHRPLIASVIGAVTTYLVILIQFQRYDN

With `OCC1(O)OC[C@@H](O)[C@@H](O)[C@@H]1O` (stereo partly drawn) [D-fructose] as the compound, how does the EC50 read?
Its EC50 is 21.5 ± 1.1 mM.

Which EC50 does the source give for `OC[C@H]1OC(O)[C@H](O)[C@@H](O)[C@H]1O` (stereo partly drawn) [D-galactose] here?
Its EC50 is 21.3 ± 1.1 mM.

With `OC[C@H]1O[C@H](O[C@H]2[C@H](O)[C@@H](O)C(O)O[C@@H]2CO)[C@H](O)[C@@H](O)[C@@H]1O` (stereo partly drawn) [D-maltose] as the compound, how does the EC50 read?
The EC50 was 16.5 ± 1.3 mM.
